Values after ≈ are worked out from the molar mass of the structure shown. Where a name gives a salt, the structure may show the parent alone. Read-outs that look alike come from different tables or passages of the source.

Data set [1] in a line: Water solubility of acid salts of the esters by the dry weight method. The format is physicochemical. As to conditions: acid addition salts (hydrochlorides); for solubility: water.
Data set [2] is described as follows: Qualitative solubility of esters and salts in water and organic solvents. The format is physicochemical.
The nature of data set [3]: True water solubility of base polyene antibiotics by DMSO dilution and ultra-violet spectrum. The format is physicochemical. As to conditions: for solubility: water.
Data set [4] has as its system Saccharomyces cerevisiae. Description: Minimum inhibitory concentration, in vitro antifungal potency (Saccharomyces cerevisiae). The format is cell-based. The note with it: for MIC: read-out: Min. Inhibitory Conc. The source says:
(§1) As indicated, numerous tests have shown that the antimicrobial activity of the present derivatives, both in the immediate ester form of esterification and in the final water-soluble salt form, is substantially the same as that of the base antibiotics. […] In the table the numerical values represent minimum inhibitory concentration and thus the lower the value, the greater the activity in inhibiting growth of the organism.

Data set [5] concerns Mucor rouxii. Description: Minimum inhibitory concentration (Mucor rouxii). The format is cell-based. The note with it: Amylomyces rouxii.
Text: as §1
(§2) In the case of amphotericin B this set of tests was extended to other microorganisms: the minimum inhibitory concentrations in micrograms per ml. for amphotericin B and its methyl ester hydrochloride respectively were 0.5 and 0.5 against Candida albicans, 0.5 and 0.5 against Mucor rouxii, and 0.20 and 0.25 against Aspergillus niger.

Data set [6] has as its system Aspergillus niger. Description: Minimum inhibitory concentration (Aspergillus niger). The class given is cell-based.
Text: as §1, §2

Data set [7] can be described thus: True solution in water judged by ultra-violet spectrum (FIG. 5). As to conditions: 7 micrograms per ml. in water. The class given is physicochemical. From the text: The true solubility of the present derivatives is further illustrated by FIG. 5, where curve A is the ultraviolet spectrum for amphotericin B methyl ester hydrochloride in water, 7 micrograms per ml., and curve B is a like spectrum for the same concentration of the base amphotericin B in water.

For data set [8], the system named is Candida albicans. Description: Minimum inhibitory concentration (Candida albicans). The format is cell-based.
Text: as §1, §2

The test system of data set [9] is Saccharomyces cerevisiae, Candida albicans and Aspergillus niger. Description: Standard in vitro tests of antimicrobial activity of derivative and base against representative organisms. The format is cell-based. As to conditions: result in words.
Text: as §1

Setting [10] is: base antibiotics, calculated from UV after ten fold dilution of saturated water solution with dimethyl sulfoxide.

On to `CCOC(=O)[C@H]1[C@@H]2C[C@@H](O[C@@H]3O[C@H](C)[C@@H](O)[C@H](N)[C@@H]3O)/C=C/C=C/C=C/C=C/C=C/C=C/C=C/[C@H](C)[C@@H](O)[C@@H](C)[C@H](C)OC(=O)C[C@H](O)C[C@H](O)CC[C@@H](O)[C@H](O)C[C@H](O)C[C@](O)(C[C@@H]1O)O2` [Amphotericin B ethyl ester hydrochloride, amphotericin B ethyl ester hydrochloride], for which the solubility (usually the dissolved amount per volume that the medium holds) in data set [1] is greater than 75 mg/mL. For `COC(=O)[C@H]1[C@@H]2C[C@@H](O[C@@H]3O[C@H](C)[C@@H](O)[C@H](N)[C@@H]3O)/C=C/C=C/C=C/C=C/C=C/C=C/C=C/[C@H](C)[C@@H](O)[C@@H](C)[C@H](C)OC(=O)C[C@H](O)C[C@H](O)CC[C@@H](O)[C@H](O)C[C@H](O)C[C@](O)(C[C@@H]1O)O2` [Amphotericin B methyl ester, amphotericin B methyl ester], the “solubility in ethyl acetate” value in data set [2] (ethyl acetate) is on record as “slightly soluble”. For the same compound, in data set [2] (methyl alcohol, ethyl alcohol, tetrahydrofurane, dimethyl formamide and dimethyl sulfoxide), the “solubility in organic solvents” value was “soluble”. Besides, the “solubility in petroleum ether and ethyl ether” value in data set [2] (petroleum ether and ethyl ether) is “insoluble”. In data set [2] (water), the “solubility in water (in words)” value was “slightly soluble”.

In the case of `C[C@@H]1[C@H](O)[C@@H](C)/C=C/C=C/C=C/C=C/C=C/C=C/C=C/[C@H](O[C@@H]2O[C@H](C)[C@@H](O)[C@H](N)[C@@H]2O)C[C@@H]2O[C@](O)(C[C@@H](O)C[C@@H](O)[C@H](O)CC[C@@H](O)C[C@@H](O)CC(=O)O[C@H]1C)C[C@H](O)[C@H]2C(=O)O` [Amphotericin B, amphotericin B, reference compound], in data set [3] (base antibiotics, calculated from UV after ten fold dilution of saturated water solution with dimethyl sulfoxide, read-out: Solubility in water), the solubility is 0.0017 mg/mL (≈ 1.84 µM). Also, the MIC in data set [4] turned out to be 0.25 µg/mL (≈ 0.271 µM); in data set [5], 0.5 µg/mL (≈ 0.541 µM); in data set [6], 0.2 µg/mL (≈ 0.216 µM). Besides, the “state in water by ultraviolet spectrum” value in [7] is “did not dissolve and was therefore a mere dispersion”. `C[C@@H]1[C@H](O)[C@@H](C)/C=C/C=C/CC/C=C/C=C/C=C/C=C/C(O[C@H]2O[C@H](C)[C@@H](O)[C@H](N)[C@@H]2O)CC2O[C@](O)(CC(O)C(O)CCC(O)CC(O)CC(O)CC(=O)O[C@H]1C)CC(O)C2C(=O)O` (some centres unmarked) [Nystatin, reference compound]: the Solubility in water in [3] (setting [10]) was 0.039 mg/mL (≈ 42.1 µM). Besides, the “Min. Inhibitory Conc.” value in [4] (in vitro) came to 3.00 micrograms/ml. For `COC(=O)C1C(O)CC2(O)CC(O)CC3OC3/C=C/C(=O)OC(C)C/C=C/C=C/C=C/C=C/C(OC3OC(C)C(O)C(N)C3O)CC1O2` (centres unmarked) [Pimaricin methyl ester hydrochloride], the solubility in data set [1] was greater than 80 mg/mL. Take `COC(=O)C1C(O)CC2(O)CC(O)CC3OC3/C=C/C(=O)OC(C)C/C=C/C=C/C=C/C=C/C(OC3OC(C)C(O)C(N)C3O)CC1O2` (centres unmarked) [Pimaricin methyl ester]: the MIC in [4] (in vitro) came to 4 µg/mL (≈ 5.88 µM).

`C[C@@H]1C/C=C/C=C/C=C/C=C/[C@H](O[C@@H]2O[C@H](C)[C@@H](O)[C@H](N)[C@@H]2O)C[C@@H]2O[C@](O)(C[C@@H](O)C[C@H]3O[C@@H]3/C=C/C(=O)O1)C[C@H](O)[C@H]2C(=O)O` [Pimaricin, reference compound] gave a solubility in data set [3] of 0.052 mg/mL (≈ 78.1 µM). Further, the MIC in [4] (in vitro) amounted to 3.5 µg/mL (≈ 5.26 µM).

As to `COC(=O)[C@H]1[C@@H]2C[C@@H](O[C@@H]3O[C@H](C)[C@@H](O)[C@H](N)[C@@H]3O)/C=C/C=C/C=C/C=C/C=C/C=C/C=C/[C@H](C)[C@@H](O)[C@@H](C)[C@H](C)OC(=O)C[C@H](O)C[C@H](O)CC[C@@H](O)[C@H](O)C[C@H](O)C[C@](O)(C[C@@H]1O)O2` [amphotericin B methyl ester hydrochloride], the Solubility in water in data set [1] (hydrochloride) is greater than 75 mg/mL. In addition, the solubility in [1] was greater than 75 mg/mL. For the same compound, the MIC in data set [4] was determined as 0.25 µg/mL; in data set [8], 0.5 µg/mL; in data set [5] it was 0.5 µg/mL; in data set [6], 0.25 µg/mL. For the same compound, the “antimicrobial activity compared with the base antibiotic” value in [9] is given as “very substantial antimicrobial activity, essentially the same, i.e., quantitatively, as the base antibiotic”. For the same compound, in data set [7], the “state in water by ultraviolet spectrum” value is recorded as “true solution in water”. For Candicidin [reference compound], the Solubility in water in data set [3] (setting [10]) was 0.032 mg/mL. The “Min. Inhibitory Conc.” value in data set [4] (in vitro) amounted to 0.020 micrograms/ml.

For the compound Candicidin methyl ester hydrochloride, in [1], the Solubility in water was greater than 20.0 mg/mL. Also, the “Min. Inhibitory Conc.” value in data set [4] (in vitro) is 0.025 micrograms/ml. As for Candidin, the Solubility in water in [3] (setting [10]) is 0.116 mg/mL. Take Candidin methyl ester hydrochloride: the Solubility in water in data set [1] was greater than 50.0 mg/mL. Consider Candimycin [reference compound], for which the “Min. Inhibitory Conc.” value in [4] (in vitro) came to 0.025 micrograms/ml. The same measure, in the same setting: the value for Candimycin methyl ester was 0.025 micrograms/ml.

Consider Hamycin, for which the Solubility in water in data set [3] (setting [10]) is 0.032 mg/mL.

Regarding Hamycin methyl ester hydrochloride, in [1], the Solubility in water is greater than 20.0 mg/mL.

On to Mediocidin [reference compound], for which the Solubility in water in data set [3] (setting [10]) is 0.072 mg/mL. Also, the “Min. Inhibitory Conc.” value in data set [4] (in vitro) is recorded as 0.035 micrograms/ml. In the case of Mediocidin methyl ester, the “Min. Inhibitory Conc.” value in [4] (in vitro) stood at 0.030 micrograms/ml. The same measure, in the same setting: the value for Nystatin methyl ester was 4.00 micrograms/ml. For Nystatin methyl ester hydrochloride, in data set [1], the Solubility in water is greater than 80.0 mg/mL. Consider Trichomycin [reference compound], for which the Solubility in water in data set [3] (setting [10]) is 0.046 mg/mL. Moreover, in data set [4] (in vitro), the “Min. Inhibitory Conc.” value was 0.030 micrograms/ml. For the compound Trichomycin methyl ester hydrochloride, the Solubility in water in data set [1] was greater than 20.0 mg/mL. Besides, the “Min. Inhibitory Conc.” value in data set [4] (in vitro) was determined as 0.030 micrograms/ml. For mediocidin methyl ester hydrochloride, the Solubility in water in data set [1] was greater than 50.0 mg/mL.
